Source: patent publication US9150558B2, “Nicotine receptor targeted compounds and compositions” (University of Florida Research Foundation, priority 2011, dated 2015)
Where two headings read alike, the source gives them in different places.

Legend:
[1] = target: T1, α7 Receptor (alpha7 nAChR) (Rattus norvegicus, UniProt Q05941); assay: Displacement binding of 125I-α-bungarotoxin to rat brain membranes (α7 nAChR); details: for α7/α4β2 Selectivity (Selectivity factor): Ki for alpha4beta2 binding divided by Ki for alpha7 binding, rat brain; for Enantiomeric Selectivity: given once per enantiomer pair, on the line of the first enantiomer, rat α7 binding
T1 construct: protein concentration of the rat brain membranes contained in the pellet; tissue Pel-Freeze Biologicals; host or cells: whole male Sprague-Dawley rat brain membranes
T1 sequence (Q05941 23-502): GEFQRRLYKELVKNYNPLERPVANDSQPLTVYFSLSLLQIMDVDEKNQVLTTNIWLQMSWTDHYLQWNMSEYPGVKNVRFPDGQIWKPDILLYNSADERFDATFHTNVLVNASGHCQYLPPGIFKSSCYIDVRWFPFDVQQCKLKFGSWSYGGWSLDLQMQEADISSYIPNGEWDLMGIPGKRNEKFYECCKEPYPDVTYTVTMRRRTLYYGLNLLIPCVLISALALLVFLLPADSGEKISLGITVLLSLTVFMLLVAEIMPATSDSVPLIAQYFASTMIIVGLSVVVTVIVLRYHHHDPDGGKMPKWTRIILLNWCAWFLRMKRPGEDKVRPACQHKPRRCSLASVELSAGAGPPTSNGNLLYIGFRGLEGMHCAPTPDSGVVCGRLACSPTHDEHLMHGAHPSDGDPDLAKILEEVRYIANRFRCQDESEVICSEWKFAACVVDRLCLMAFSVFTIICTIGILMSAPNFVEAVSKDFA
Source text: As used herein, the term “selectively binds,” “selective binding,” and cognates thereof refer to anabaseine compounds that preferentially bind one type of nicotinic acetylcholine receptor relative to another type of acetylcholine receptor (e.g., α7 nAChR versus the α4β2 nAChR). Because Ki is an inverse measure of affinity, binding selectivity of a compound for the α7 nAChR versus the α4β2 nAChR is expressed by dividing the Ki for binding to the α4β2 nAChR by the Ki for binding to the α7 nAChR. In one embodiment, a compound of the invention selectively binds α7 nAChR compared to α4β2 nAChR. The selectivity of a compound of the invention for α7 nAChR over α4β2 nAChR is at least 2, 3, 4, 5, 6, 7, 8, 9, 10, 11, 12, 13, 14, 15, or more. In another embodiment, a compound of the invention selectively binds α4β2 nAChR compared to α7 nAChR. The selectivity of a compound of the invention for α4β2 nAChR over α7 nAChR is at least 2, 3, 4, 5, 6, 7, 8, 9, 10, 11, 12, 13, 14, 15, or more. Binding to the α7 and α4β2 nAChR (including relative binding to each of these receptors) can be determined by the skilled artisan using the methods known in the art, in particular in view of the teachings provided herein. In particular, the assays used to determine selective binding are according to Marks and Collins for [^125I]alpha-bungarotoxin experiments (for alpha7 receptor binding) and a modified method by Pabreza et al. for [^3H]cytisine experiments (for α4β2), used as described in US 2009/0215705.
(§1) Whole male Sprague-Dawley rat brains (Pel-Freeze Biologicals, Rogers, Ariz.) were homogenized with a 30 ml Wheaton (location) glass homogenizing tube and pestle in binding saline (120 mM NaCl, 5 mM KCl, 2 mM CaCl2, 1 mM MgCl2, 50 mM Tris-TrisHCl buffer, pH 7.4). After the homogenate was centrifuged at 11,000 rpm (convert to ×G) for a 10 min, the resulting pellet was resuspended in fresh binding saline and homogenized and centrifuged again. A protein assay (BCA, Pierce, Rockford, Ill.) was then performed to obtain the protein concentration of the rat brain membranes contained in the pellet, which was stored at −85° C. before use.
Radioligands used in the displacement binding assays were obtained from Perkin Elmer Life and Analytical Sciences (Boston, Mass.). ^3H-Cytisine was used to selectively bind to alpha4beta2 nAChRs and ^125I-α-bungarotoxin (α-Btx) for alpha? nAChRs. ^3H-Cytisine (34 Ci/mmol) experiments were performed according to Flores et al. (1992) with a few minor alterations, specifically that the incubation time was increased to four hours at 4° C. to assure binding equilibrium. The ^125I-α-Btx (136 Ci/mmol) experiments involved 37° C. incubation for three hours to assure equilibration. Both radioligands were generally tested at final concentrations of 1 nM. Membranes at the above mentioned concentrations were suspended in binding saline containing 2 mg/ml of bovine serum albumin (Sigma, St. Louis, Mo.) to reduce non-specific binding. For each radioligand, nonspecific binding was measured in the presence of a final concentration of 1 mM (S)-nicotine hydrogen tartrate salt (Sigma, St. Louis, Mo.). After incubation, radioligand bound to membranes in 48 tubes was rapidly collected by vacuum filtration using a Brandel cell harvester (Gaithersburg, Md.) and Whatman GF/C glass fiber filters that were pre-soaked in 0.5% polyethylenimine for 45 minutes to reduce nonspecific binding. The radiolabeled membranes were rapidly washed three times with 3 ml ice-cold binding saline to separate bound from free radioligand. Filters containing ^3H-cytisine bound membranes were placed in 20 ml scintillation tubes and suspended in 8 mls of 30% Scintisafe scintillation fluid (Fisher), then counted in a Beckman LS-6500 liquid scintillation counter (Fullerton, Calif.). Filters containing ^125I-α-Btx bound membranes were placed in 4 ml scintillation vials and counted in a Beckman 5500B gamma counter (Fullerton, Calif.). […]

[2] = target: T2, α4β2 Receptor (alpha4beta2 nAChR) (Rattus norvegicus, UniProt P09483+P12390); assay: Displacement binding of 3H-cytisine to rat brain membranes (α4β2 nAChR)
T2 construct: protein concentration of the rat brain membranes contained in the pellet; tissue Pel-Freeze Biologicals; host or cells: whole male Sprague-Dawley rat brain membranes
T2 sequence (P09483 31-630): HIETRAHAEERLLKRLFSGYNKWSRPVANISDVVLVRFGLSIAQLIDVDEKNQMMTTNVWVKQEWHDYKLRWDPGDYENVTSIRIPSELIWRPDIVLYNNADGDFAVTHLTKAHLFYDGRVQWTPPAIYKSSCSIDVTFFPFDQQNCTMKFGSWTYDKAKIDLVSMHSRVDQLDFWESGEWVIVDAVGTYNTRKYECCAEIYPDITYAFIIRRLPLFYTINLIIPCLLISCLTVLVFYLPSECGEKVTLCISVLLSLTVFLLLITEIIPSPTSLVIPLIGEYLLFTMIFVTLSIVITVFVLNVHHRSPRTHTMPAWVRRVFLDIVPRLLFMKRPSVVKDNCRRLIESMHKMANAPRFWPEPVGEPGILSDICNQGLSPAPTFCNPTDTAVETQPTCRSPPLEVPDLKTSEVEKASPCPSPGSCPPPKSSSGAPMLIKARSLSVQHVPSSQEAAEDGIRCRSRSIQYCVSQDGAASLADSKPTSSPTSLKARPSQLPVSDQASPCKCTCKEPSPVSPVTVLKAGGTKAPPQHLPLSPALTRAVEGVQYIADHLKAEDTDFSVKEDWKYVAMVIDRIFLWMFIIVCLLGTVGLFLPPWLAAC
T2 sequence (P12390 25-500): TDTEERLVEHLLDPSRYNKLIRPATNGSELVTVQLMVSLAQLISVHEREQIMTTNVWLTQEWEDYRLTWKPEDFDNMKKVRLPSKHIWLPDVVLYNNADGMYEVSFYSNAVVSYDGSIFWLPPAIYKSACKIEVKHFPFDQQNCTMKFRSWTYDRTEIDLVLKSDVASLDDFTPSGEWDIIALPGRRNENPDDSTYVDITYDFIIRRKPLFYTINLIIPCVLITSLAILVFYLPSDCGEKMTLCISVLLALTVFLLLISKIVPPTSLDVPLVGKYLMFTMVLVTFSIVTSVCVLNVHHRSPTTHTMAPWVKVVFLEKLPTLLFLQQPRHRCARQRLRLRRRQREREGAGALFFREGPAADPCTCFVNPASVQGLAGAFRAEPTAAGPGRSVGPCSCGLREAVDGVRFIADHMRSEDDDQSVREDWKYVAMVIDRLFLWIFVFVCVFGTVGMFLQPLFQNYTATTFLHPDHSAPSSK
Protocol: as §1
Radioligands used in the displacement binding assays were obtained from Perkin Elmer Life and Analytical Sciences (Boston, Mass.). ^3H-Cytisine was used to selectively bind to alpha4beta2 nAChRs and ^125I-α-bungarotoxin (α-Btx) for alpha? nAChRs. ^3H-Cytisine (34 Ci/mmol) experiments were performed according to Flores et al. (1992) with a few minor alterations, specifically that the incubation time was increased to four hours at 4° C. to assure binding equilibrium. The ^125I-α-Btx (136 Ci/mmol) experiments involved 37° C. incubation for three hours to assure equilibration. Both radioligands were generally tested at final concentrations of 1 nM. Membranes at the above mentioned concentrations were suspended in binding saline containing 2 mg/ml of bovine serum albumin (Sigma, St. Louis, Mo.) to reduce non-specific binding. For each radioligand, nonspecific binding was measured in the presence of a final concentration of 1 mM (S)-nicotine hydrogen tartrate salt (Sigma, St. Louis, Mo.). After incubation, radioligand bound to membranes in 48 tubes was rapidly collected by vacuum filtration using a Brandel cell harvester (Gaithersburg, Md.) and Whatman GF/C glass fiber filters that were pre-soaked in 0.5% polyethylenimine for 45 minutes to reduce nonspecific binding. The radiolabeled membranes were rapidly washed three times with 3 ml ice-cold binding saline to separate bound from free radioligand. Filters containing ^3H-cytisine bound membranes were placed in 20 ml scintillation tubes and suspended in 8 mls of 30% Scintisafe scintillation fluid (Fisher), then counted in a Beckman LS-6500 liquid scintillation counter (Fullerton, Calif.). Filters containing ^125I-α-Btx bound membranes were placed in 4 ml scintillation vials and counted in a Beckman 5500B gamma counter (Fullerton, Calif.).
Displacement assay binding data were analyzed using GraphPad Prism software (San Diego, Calif.). The mean counts per minute values for each concentration of a given compound concentration were obtained from 4 replicates. The data were fitted to a sigmoidal concentration response curve from which the Hill slope (n) and IC50 (X) values were estimated: Y=Bottom+(Top−Bottom)/(1+10^(Log IC50-X)n) Here, Top=maximal specific binding of radioligand at the top of the curve and Bottom=minimum specific binding observed at high concentrations of the displacing ligand. […] Results and Discussion

[3] = rat brain membranes, 3H-cytisine 1 nM, 4° C. four hours, read-out: α4β2 Receptor Rat Ki
[4] = rat brain membranes, 125I-α-Btx 1 nM, 37° C. three hours, read-out: α7 Receptor Rat Ki

c1cncc(C2=NCCCC2)c1 [Compound 1, anabaseine, reference compound]
Ki [1]: 290 nM | α7/α4β2 Selectivity (Selectivity factor) [1]: 0.26 | Ki [2]: 76 nM

COc1ccc(/C=C2\CCCN=C2c2cccnc2)c(OC)c1 [Compound 2, 3-(2,4-dimethoxybenzylidene)-anabaseine, reference compound]
α7/α4β2 Selectivity (Selectivity factor) [1]: 1.91

Oc1ccc(C=C2CCCN=C2c2cccnc2)cc1 [Compound 3, reference compound]
α7/α4β2 Selectivity (Selectivity factor) [1]: 1.2 | Ki [2, 3]: 450 nM

COc1ccc(C=C2C(c3cccnc3)=NCC[C@H]2C)c(OC)c1 [Compound 4, 3-(DMXB)-4(R)-methyl-anabaseine]
Ki [1]: 62 nM | α7/α4β2 Selectivity (Selectivity factor) [1]: 2.5 | Enantiomeric Selectivity [1]: 2.0 | Ki [2, 3]: 153 nM

COc1ccc(/C=C2/C(c3cccnc3)=NCC[C@@H]2C)c(OC)c1 [Compound 5, 3-(2,4-Dimethoxybenzylidene)-4(S)-methyl-anabaseine]
Ki [1]: 125 nM | α7/α4β2 Selectivity (Selectivity factor) [1]: 1.5 | Ki [2, 3]: 191 nM

COc1ccc(C=C2CC(C)CN=C2c2cccnc2)c(OC)c1 (stereo not shown) [Compound 6]
Enantiomeric Selectivity [1]: 6.8 | Ki [1, 4]: 220 nM

COc1ccc(C=C2CC(C)CN=C2c2cccnc2)c(OC)c1 (stereo not shown) [Compound 7]
Ki [1]: 1500 nM

COc1ccc(/C=C2\CC[C@H](C)N=C2c2cccnc2)c(OC)c1 [Compound 8, 3-(2,4-Dimethoxybenzylidene)-6(S)-methyl-anabaseine]
Ki [1]: 208 nM | α7/α4β2 Selectivity (Selectivity factor) [1]: 2.8 | Enantiomeric Selectivity [1]: 3.3 | Ki [2, 3]: 588 nM

COc1ccc(C=C2CC[C@@H](C)N=C2c2cccnc2)c(OC)c1 [Compound 9, 3-(DMXB)-6(R)-methyl-anabaseine]
Ki [1]: 401 nM | α7/α4β2 Selectivity (Selectivity factor) [1]: 0.86 | Ki [2, 3]: 344 nM

COc1ccc(C=C2C(c3cccnc3)=NC(C)CC2C)c(OC)c1 (stereo not shown) [Compound 10]
α7/α4β2 Selectivity (Selectivity factor) [1]: 1.3 | Enantiomeric Selectivity [1]: 11 | Ki [1, 4]: 37.6 nM | Ki [2, 3]: 49.8 nM

COc1ccc(/C=C2/C(c3cccnc3)=N[C@H](C)C[C@@H]2C)c(OC)c1 [Compound 11]
α7/α4β2 Selectivity (Selectivity factor) [1]: 1.5 | Ki [1, 4]: 409 nM | Ki [2, 3]: 610 nM

COc1ccc(/C=C2/C(c3cccnc3)=N[C@H]3CC[C@@H]2C3)c(OC)c1 [Compound 12, (1S,5R,E)-4-(2,4-dimethoxybenzylidene)-3-(pyridin-3-yl)-2-azabicyclo[3.2.1]oct-2-ene]
Ki [1]: 16.4 nM | α7/α4β2 Selectivity (Selectivity factor) [1]: 13 | Enantiomeric Selectivity [1]: 270 | Ki [2, 3]: 219 nM

COc1ccc(/C=C2/C(c3cccnc3)=N[C@@H]3CC[C@H]2C3)c(OC)c1 [Compound 13, (1R,5S,E)-4-(2,4-dimethoxybenzylidene)-3-(pyridin-3-yl)-2-azabicyclo[3.2.1]oct-2-ene]
Ki [1]: 4400 nM | α7/α4β2 Selectivity (Selectivity factor) [1]: 0.079 | Ki [2, 3]: 347 nM

Oc1ccc(/C=C2/C(c3cccnc3)=N[C@H]3CC[C@@H]2C3)cc1 [Compound 14, 4-((E)-((1S,5R)-3-(pyridin-3-yl)-2-azabicyclo[3.2.1]oct-2-en-4-ylidene)methyl)phenol]
Ki [1]: 34.1 nM | α7/α4β2 Selectivity (Selectivity factor) [1]: 2.1 | Ki [2]: 72.5 nM

C[C@H]1CC/C(=C\c2ccc(N)cc2)C(c2cccnc2)=N1 [Compound 15, 3-(4-Aminobenzylidene)-6(S)-methyl-anabaseine]
Ki [1]: 73 nM | α7/α4β2 Selectivity (Selectivity factor) [1]: 4.3 | Ki [2, 3]: 314 nM

Nc1ccc(/C=C2/C(c3cccnc3)=N[C@H]3CC[C@@H]2C3)cc1 [Compound 16, 3-(4-Aminobenzylidene)-4(R),6(S)-ethylene-anabaseine]
Ki [1]: 3.43 nM | α7/α4β2 Selectivity (Selectivity factor) [1]: 9.9 | Ki [2]: 34.1 nM
